In patent publication US9045440B2, “Desazadesferrothiocin and desazadesferrothiocin polyether analogues as metal chelation agents” (FerroKin Biosciences, Inc., priority 2010, dated 2015):
Like-named read-outs stand apart in the source and are kept apart here.

Tests used:
[1] = mode of iron excretion; cited from earlier work
[2] = cited from earlier work
[3] = rats, 300 μmol/kg intraperitoneally immediately after uranyl acetate; cited from earlier work
[4] = pH 7.4
Method: Measurements were taken via LC/MS.
To each 5 μL aliquot of stock solution of each sample was added 500 μL of PBS pH 7.4 and 500 μL of octanol and a stir bar. […] Stir bars were removed and samples centrifuged at 15,000 g for 15 minutes to separate the phases, and pipette and syringe were used to remove the upper (octanol) and lower (buffer) phases to empty tubes, respectively. Aliquots of 5 μL were taken from upper phases and diluted with 495 μL of methanol. Aliquots of 50 μL were taken from lower phases and diluted with 450 μL of methanol. Reference solutions of progesterone or metopolol were also prepared and tested as standards.

[5] = ratio of ICE in one species (monkey) to the other (rat)

Row | SMILES | Rodent ICE [urine/bile] [1] | Primate ICE [urine/bile] ([2]; mode of iron excretion) | ICE Ratio [2, 5] | further results
1 | COCCOCCOc1ccc(C2=N[C@@](C)(C(=O)O)CS2)c(O)c1 [Example A, (S)-2-(2-hydroxy-4-(2-(2-methoxyethoxy)ethoxy)phenyl)-4-methyl-4,5-dihydrothiazole-4-carboxylic acid] | [97/3] |  |  | ICE Ratio ([2]; primate (capsule) to rodent): 1.0; ICE Ratio ([2]; primate (sodium salt) to rodent): 1.1; Primate ICE [urine/bile] ([2]; given as capsule): [93/7]; Primate ICE [urine/bile] ([2]; given as sodium salt): [83/17]
2 | COCCOCCOCCOc1ccc(C2=N[C@@](C)(C(=O)O)CS2)c(O)c1 [Example B, (S)-2-(2-hydroxy-4-(2-(2-(2-methoxyethoxy)ethoxy)ethoxy)phenyl)-4-methyl-4,5-dihydrothiazole-4-carboxylic acid] | [90/10] | [96/4] | 4.6 | Uranium Excretion [urine/bile] [3]: [35/65]
3 | COCCOCCOCCOCCOc1ccc(C2=N[C@@](C)(C(=O)O)CS2)c(O)c1 [Example C, (S)-2-(4-(2,5,8,11-tetraoxatridecan-13-yloxy)-2-hydroxyphenyl)-4-methyl-4,5-dihydrothiazole-4-carboxylic acid] | [99/1] | [52/48] | 0.8 | 
4 | COCCOCCOc1cccc(C2=N[C@@](C)(C(=O)O)CS2)c1O [Example D, (S)-2-(2-hydroxy-3-(2-(2-methoxyethoxy)ethoxy)phenyl)-4-methyl-4,5-dihydrothiazole-4-carboxylic acid] | [99/1] |  |  | 
5 | COCCOCCOCCOc1cccc(C2=N[C@@](C)(C(=O)O)CS2)c1O [Example E, (S)-2-(2-hydroxy-3-(2-(2-(2-methoxyethoxy)ethoxy)ethoxy)phenyl)-4-methyl-4,5-dihydrothiazole-4-carboxylic acid] | [95/5] | [95/5] | 2.2 | 
6 | COCCOCCOCCOCCOc1cccc(C2=N[C@@](C)(C(=O)O)CS2)c1O [Example F, (S)-2-(3-(2,5,8,11-tetraoxatridecan-13-yloxy)-2-hydroxyphenyl)-4-methyl-4,5-dihydrothiazole-4-carboxylic acid] | [98/2] | [25/75] | 0.8 | 
7 | COCCc1ccc(OCC(O)CNC(C)C)cc1 (centres unmarked) [metopolol] |  |  |  | LogD [4]: −0.27
